According to patent US20060025430A1, “Novel irreversible inhibitors of epidermal growth factor receptor tyrosine kinase and uses thereof for therapy and diagnosis” (priority 2003, published 2006):
pIC50: −log10 of the molar value.

Tests used:
EGFR-TK = molecular target: T1, EGFR-TK (Homo sapiens, UniProt P00533); test: EGFR-TK autophosphorylation inhibition in intact A431 cells (irreversibility assay, Western blot); type: cell-based; conditions: inhibitor concentration at which 50% inhibition was achieved eight hours post incubation, intact A431 cells, eight hours post incubation
T1 construct: The supernatant, which contained the EGFR, was collected and frozen; endogenous in cells; host or cells: A431 cells (A1: Triton X-100 lysate captured on mAb108; A2: intact cells)
Procedure: A431 cells (5×10^5) were seeded in 6-well plates and grown for 24 hours to about 90% confluence in DMEM (high glucose) containing 10% fetal calf serum (FCS) and antibiotics at 37° C. The cells were then exposed to serum-free medium, at 37° C., for 18 hours.
[…] The medium was replaced thereafter with an inhibitor/FCS-free medium and the cells were divided into two groups: cells of the first group were immediately stimulated with EGF (20 ng/ml) for 5 minutes and then washed with PBS, while cells of the second group were incubated for additional 8 hours, at 37° C. During the 8 hours period, the medium was changed three times (after 2, 4 and 8 hours). After the post-incubation period, the cells of the second group were stimulated with EGF (20 ng/ml) for 5 minutes and then washed with PBS.
Identical protein amounts from each lysate sample were loaded onto polyacrylamide gel (6% or 10%), separated by electrophoresis (Hoefer Pharmacia Biotech Inc., San Francisco, USA) and transferred to nitrocellulose membrane (power supply: EPS 500/400, Amersham Pharmacia Biotech; nitrocellulose extra blotting membranes: Sartorius AG, Goettingen, Germany). A standard high molecular weight solution was loaded as a reference. For visualization of molecular weight bands, the membrane was immersed in Ponceau reagent (0.05% Ponceau, 5% acetic acid) for a few minutes, and then washed twice with TTN (10 mM Tris pH 7.4, 0.2% TWEEN 20, 170 mM NaCl) and once with water. The membrane was blocked overnight in TTN containing 5% milk (1% fat) (blocking TTN) and incubated for 90 minutes with PY20 antiphosphotyrosine antibody (Santa Cruz Biotechnology Inc., Santa Cruz, USA) diluted 1:2,000 in blocking TTN. The membrane was then washed with TTN (3×5 minutes), incubated for 90 minutes with a horseradish peroxidase-conjugated secondary antibody (Goat anti-mouse IgG H+L, Jackson ImResearch Laboratories, Inc., diluted 1:10,000 in blocking TTN), and finally washed again with TTN (3×5 minutes).
After the incubation, the media was replaced with inhibitor/FCS-free media and the inhibition effect was measured either immediately thereafter or after 8 hours post incubation.

EGFR = molecular target: T2, EGFR (Homo sapiens, UniProt P00533); test: Selective-inhibition assay in DHER14 cells (receptor phosphotyrosine, Western blot); type: cell-based; conditions: DHER14 cells expressing EGFR, 1 hour incubation, EGF stimulation
T2 construct: expressed in transfected cells; host or cells: NIH3T3 (DHER14 cells)
Procedure: NIH3T3 cells transformed with either the EGFR (DHER14 cells), with the HER1-HER2 chimera (CSH12 cells) or with the PDGFR (NIH/PDGFR cells), decribed by Lee et al.; 1989, Honegger et al., 1988; and Shawver et al. 1997, and A431 human epidermoid vulval carcinoma cells were grown in Dulbecco's modified Eagle's medium (DMEM) (Biological industries, Kibbuts Beit Haemek, Israel) supplemented with 10% fetal calf serum and antibiotics (penicillin […], streptomycin 100 mg/liter) at 37° C. in 5% CO2.
Selective-inhibition assay: CSH12, DHER14 and […] cells, expressing either the HER1-HER2 chimera, EGFR or PDGFR, respectively, were used for the determination of inhibitory selectivity. Cells (7.5×10^4) were grown in 6-well plates (35 mm diameter, Nalge Nunc) for 24 hours and then incubated in 0.25% FCS-containing medium for an additional 24 hours to about 90% confluence. Duplicate sets of cells were treated with the tested compounds at varying concentrations for 1 hour. The final concentration of the vehicle in the medium was 0.05% DMSO, 0.1% EtOH. After removal of the inhibitor from the medium, PBS wash (×2) and addition of 0.25% serum-containing medium to the wells, the cells were stimulated with either 20 ng/mL human EGF for 5 minutes (CSH12 and DHER14 cells) or 50 ng/ml human PDGFββ for 10 minutes ([…] cells) at 37° C. […]

T1 sequence (P00533 25-1210): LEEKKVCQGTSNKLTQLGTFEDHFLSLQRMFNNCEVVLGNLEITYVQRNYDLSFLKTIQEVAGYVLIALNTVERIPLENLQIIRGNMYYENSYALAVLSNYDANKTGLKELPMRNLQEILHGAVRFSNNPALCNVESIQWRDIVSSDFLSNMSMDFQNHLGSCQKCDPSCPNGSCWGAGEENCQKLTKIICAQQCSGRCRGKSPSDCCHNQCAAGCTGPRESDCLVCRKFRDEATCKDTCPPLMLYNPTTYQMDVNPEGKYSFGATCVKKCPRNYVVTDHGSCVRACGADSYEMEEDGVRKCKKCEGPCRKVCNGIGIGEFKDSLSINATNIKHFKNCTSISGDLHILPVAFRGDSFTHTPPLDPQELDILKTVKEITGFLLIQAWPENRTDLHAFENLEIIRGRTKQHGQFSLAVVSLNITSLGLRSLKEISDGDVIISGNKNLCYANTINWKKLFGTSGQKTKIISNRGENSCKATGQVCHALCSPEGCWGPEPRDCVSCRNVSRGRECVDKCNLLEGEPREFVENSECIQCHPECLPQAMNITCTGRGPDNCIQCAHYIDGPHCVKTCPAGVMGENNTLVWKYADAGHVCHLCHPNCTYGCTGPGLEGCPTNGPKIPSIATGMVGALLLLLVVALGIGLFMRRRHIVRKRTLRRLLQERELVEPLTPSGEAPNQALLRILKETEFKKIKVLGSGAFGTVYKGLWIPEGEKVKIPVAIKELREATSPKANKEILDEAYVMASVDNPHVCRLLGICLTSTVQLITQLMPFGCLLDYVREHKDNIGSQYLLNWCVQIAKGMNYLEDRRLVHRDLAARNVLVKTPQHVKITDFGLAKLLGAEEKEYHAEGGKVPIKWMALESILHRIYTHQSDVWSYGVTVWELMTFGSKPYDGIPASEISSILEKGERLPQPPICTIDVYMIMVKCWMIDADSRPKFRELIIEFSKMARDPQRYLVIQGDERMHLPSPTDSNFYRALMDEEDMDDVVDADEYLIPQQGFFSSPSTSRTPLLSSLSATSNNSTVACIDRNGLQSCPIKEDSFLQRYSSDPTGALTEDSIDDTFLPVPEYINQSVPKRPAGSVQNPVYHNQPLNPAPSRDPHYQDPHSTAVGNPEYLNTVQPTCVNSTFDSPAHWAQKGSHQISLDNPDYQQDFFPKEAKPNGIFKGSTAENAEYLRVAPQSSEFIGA
T2 sequence (P00533 25-1210): as above

melting point: > 300 °C
pIC50 (EGFR-TK): 7.30 to 8.00
pIC50 (EGFR): 7.82 to 8.30
Compound: O=C(CCl)Nc1ccc2ncnc(Nc3cc(Cl)c(Cl)cc3F)c2c1 [Compound 5, N-{4-[(4,5-Dichloro-2-fluoro-phenyl)amino]-quinazolin-6-yl}-2-chloroacetamide]
